Source: paper PMC8396344, “Palmitoylation of Prolactin-Releasing Peptide Increased Affinity for and Activation of the GPR10, NPFF-R2 and NPFF-R1 Receptors: In Vitro Study” (International Journal of Molecular Sciences, 2021)
No end group written: not given here.

Key:
[1] = biological target: T1, KOR (Homo sapiens, UniProt P41145); assay: Competitive and saturation binding, [^125I]-dynorphin, membranes of CHO-K1 cells with KOR; settings: competition with [^125I]-dynorphin A, CHO-K1 membranes 5 µg protein/tube, 60 min RT; mean ± SEM, 2–5 independent experiments in duplicates; Cheng-Prusoff
T1 construct: host or cells: CHO-K1
Description: Pellets of CHO-K1 cells containing NPFF-R2, NPFF-R1 and KOR receptors were homogenized in ice-cold homogenizing buffer (20 mM HEPES pH 7.1, 5 mM MgCl2, 0.7 mM bacitracin) with a DIAX 100 Homogenizer (Heidolph Instruments, Schwabach, Germany) and centrifuged in an ultracentrifuge (Beckman Coulter, Fullerton, CA, USA) at 26,000× g for 15 min at 4 °C. The pellets were homogenized in ice-cold homogenization buffer, and the previous steps were repeated 2 more times. After the third centrifugation, pellets were resuspended in ice-cold storage buffer (50 mM Tris-Cl pH 7.4, 0.5 mM EDTA, 10 mM MgCl2, 10% sucrose), and aliquots were stored at −80 °C. The concentration of isolated membrane proteins was determined by a PierceTM BCA Protein Assay Kit (Pierce, Rockford, IL, USA). […]
(§1) Experiments were carried out in duplicate at least three times, and Ki was calculated using the Cheng-Prusoff equation.
Data were analyzed by GraphPad Software (San Diego, CA, USA) and are presented as the means ± SEM. The saturation and competitive binding experiments were analyzed according to [46] using the Cheng-Prusoff equation [33]. […] From saturation binding experiments, the dissociation constant (Kd) and number of binding sites/cell (Bmax) were calculated. Inhibition constants (Ki) were calculated from IC50 values, Kd and the concentration of radioligands.

[2] = biological target: T2, GPR10 (Homo sapiens, UniProt P49683); assay: Intracellular Ca^2+ mobilization, Fura-2, CHO-K1 cells expressing GPR10; type: cell-based; settings: Fura 2 dye; peptides 10^−12 to 10^−5 M; repeated two times in duplicates
T2 construct: host or cells: CHO-K1
T2 sequence (P49683 1-370): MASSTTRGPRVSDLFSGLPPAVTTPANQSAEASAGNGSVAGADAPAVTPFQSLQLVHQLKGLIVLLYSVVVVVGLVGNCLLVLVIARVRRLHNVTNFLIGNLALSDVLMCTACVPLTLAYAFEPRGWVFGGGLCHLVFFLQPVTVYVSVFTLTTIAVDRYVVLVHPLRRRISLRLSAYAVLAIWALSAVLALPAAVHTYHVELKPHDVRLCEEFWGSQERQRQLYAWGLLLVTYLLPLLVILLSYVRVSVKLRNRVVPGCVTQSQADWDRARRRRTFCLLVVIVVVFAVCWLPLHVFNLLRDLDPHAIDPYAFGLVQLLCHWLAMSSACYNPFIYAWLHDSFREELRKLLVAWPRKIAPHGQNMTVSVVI
Description: Measuring the intracellular Ca^2+ level in CHO-K1 cells containing GRP10 was performed using the calcium-sensitive dye Fura-2 according to the manufacturer’s protocol (Molecular Devices, Sunnyvale, CA, USA). The day before the experiment, cells were seeded at 40,000 cells/well in 96-well plates in growth media and kept at 37 °C in an incubator with 5% CO2 overnight. Peptides were tested at concentrations from 10^−12 to 10^−5 M. Fura-2 fluorescent dye was detected using a FlexStation 3 fluorometric plate reader (Molecular Devices), and excitation was measured at 340 nm and 380 nm and emission at 510 nm.
Ca^2+ release assay data are shown as the percentage of maximal response, and the results were analyzed by nonlinear regression as log agonist versus response using GraphPad software. Data are representative of at least three experiments, each performed in duplicate.

[3] = biological target: T3, DOR (Homo sapiens, UniProt P41143); assay: Beta-lactamase reporter gene assay (FRET), DOR; type: cell-based; settings: β-lactamase assay, agonist mode, U2OS cells; mean ± SEM, 2–3 independent experiments in duplicates
T3 construct: host or cells: U2OS

[4] = biological target: T4, Y2 (Homo sapiens, UniProt P49146); assay: Competitive and saturation binding, [^125I]-PYY, U2OS cells with Y2
T4 construct: host or cells: U2OS
T4 sequence (P49146 1-381): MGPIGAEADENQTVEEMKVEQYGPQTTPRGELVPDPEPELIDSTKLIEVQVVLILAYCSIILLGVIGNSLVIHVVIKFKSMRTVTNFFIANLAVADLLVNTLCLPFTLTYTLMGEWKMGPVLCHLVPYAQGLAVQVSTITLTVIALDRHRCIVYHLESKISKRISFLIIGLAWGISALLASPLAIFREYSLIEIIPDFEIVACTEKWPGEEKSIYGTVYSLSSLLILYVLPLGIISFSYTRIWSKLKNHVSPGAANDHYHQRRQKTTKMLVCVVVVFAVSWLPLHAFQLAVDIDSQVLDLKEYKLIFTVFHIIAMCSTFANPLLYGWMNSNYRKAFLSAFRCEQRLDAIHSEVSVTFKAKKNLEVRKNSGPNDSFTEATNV
Description: Competition binding experiments were performed according to [45]. […] Binding experiments using U2OS cells were optimized and performed in assay buffer (50 mM Tris-Cl pH 7.4, 118 mM NaCl, 5 mM MgCl2, 4.7 mM KCl, 0.1% BSA) for cells stably expressing GHSR and (25 mM HEPES, 120 mM NaCl, 5 mM MgCl2, 4.7 mM KCl, 1 mM CaCl2, 0.5% BSA, 2 g/L glucose) for cells containing receptors Y1, Y2 and Y5. […] Cells were incubated for 60 min at room temperature (RT).
as §1
Data were analyzed by GraphPad Software (San Diego, CA, USA) and are presented as the means ± SEM. The saturation and competitive binding experiments were analyzed according to [46] using the Cheng-Prusoff equation [33]. The competitive binding curves were plotted compared to the best fit for single-binding site models, and half maximal inhibitory concentration (IC50) values were obtained from nonlinear regression analysis. From saturation binding experiments, the dissociation constant (Kd) and number of binding sites/cell (Bmax) were calculated. Inhibition constants (Ki) were calculated from IC50 values, Kd and the concentration of radioligands.

[5] = biological target: T5, MOR (Homo sapiens, UniProt P35372); assay: Beta-lactamase reporter gene assay (FRET), MOR; type: cell-based
T5 construct: host or cells: U2OS

[6] = biological target: T2, GPR10; assay: Beta-lactamase reporter gene assay (FRET), GPR10; type: cell-based; settings: β-lactamase assay, agonist mode, CHO-K1 cells; mean ± SEM, 2–3 independent experiments in duplicates
[7] = biological target: T6, GHSR (Homo sapiens, UniProt Q92847); assay: Beta-lactamase reporter gene assay (FRET), GHSR; type: cell-based
T6 construct: host or cells: U2OS

[8] = biological target: T2, GPR10; assay: Competitive binding, [^125I]-PrRP31, CHO-K1 cells expressing GPR10

| Molecule | Ki [1] [µM] | Ca^2+ mobilization in CHO-K1 cells expressing GPR10 [2] | EC50 [3] [µM] | Ki [4] [µM] | EC50 [5] [µM] | EC50 [6] [µM] | EC50 [7] [µM] | Ki [8] [µM] |
| --- | --- | --- | --- | --- | --- | --- | --- | --- |
| CCCCCCCCCCCCCCCC(=O)N[C@@H](CO)C(=O)N[C@@H](CCCNC(=N)N)C(=O)N[C@H](C(=O)N[C@@H](Cc1c[nH]cn1)C(=O)N[C@@H](CCCNC(=N)N)C(=O)N[C@@H](Cc1c[nH]cn1)C(=O)N[C@@H](CO)C(=O)N[C@@H](CCSC)C(=O)N[C@@H](CCC(=O)O)C(=O)N[C@H](C(=O)N[C@@H](CCCNC(=N)N)C(=O)N[C@H](C(=O)N1CCC[C@H]1C(=O)N[C@@H](CC(=O)O)C(=O)N[C@H](C(=O)N[C@@H](CC(N)=O)C(=O)N1CCC[C@H]1C(=O)N[C@@H](C)C(=O)N[C@@H](Cc1c[nH]c2ccccc12)C(=O)N[C@@H](Cc1ccc(O)cc1)C(=O)N[C@@H](C)C(=O)N[C@@H](CO)C(=O)N[C@@H](CCCNC(=N)N)C(=O)NCC(=O)N[C@H](C(=O)N[C@@H](CCCNC(=N)N)C(=O)N1CCC[C@H]1C(=O)N[C@H](C(=O)NCC(=O)N[C@@H](CCCNC(=N)N)C(=O)N[C@@H](Cc1ccccc1)C(N)=O)C(C)C)[C@@H](C)CC)[C@@H](C)CC)[C@@H](C)O)[C@@H](C)CC)[C@@H](C)O [Palm-PrRP31] | 0.106 ± 0.015 | stimulated Ca^2+ mobilization | > 10 | > 10 | > 10 |  |  |  |
| SRAHQHSMETRTPDINPAWYTGRGIRPVGRF-NH2 [PrRP31, prolactin-releasing peptide 31, reference compound] | > 10 |  | > 10 | > 10 | > 10 | 0.00053 ± 7.05e-05 | > 10 | 0.00458 ± 0.00066 |
